In patent publication US20210214758A1, “METHODS AND TOOLS FOR DETERMINING CLONAL RELATEDNESS AND PREDICTING CLONAL TRAITS” (priority 2018, published 2021):

Test system: Klebsiella isolates
Experiment: Antibiotic susceptibility of Klebsiella clinical isolates per 7-SNP clonotype (Lookup Table 1; disk diffusion)
Assay type: cell-based, Klebsiella spp.
Protocol: In further embodiments, the Lookup Table is Lookup Table 1. The information contained in Lookup Table 1 below was obtained from urine specimens from patients with Klebsiella infections from several clinics within different regions of the United States. CT=clonotypes determined using a 7-SNP combination: phoE54; rpoB130; infB279; mdh315; phoE336; phoE354; and mdh429.
Next, antibiotic resistance was determined for all 387 Klebsiella isolates in the discovery set. Antibiotic testing was carried out according to the standard disk diffusion method as described in the Clinical and Laboratory Standards Institute (M100 Performance Standards for Antimicrobial Susceptibility Testing, 27th Edition, 2017). […] Since almost all Klebsiella isolates are known to be resistant to AMP and sensitive to IMI, TET is not used for treatment of urinary tract infections, and ESBL production is partially reflected in resistance to CTR, these antibiotics were not included for further analysis.
To aid in clinical decision-making and to translate clonotype information to treatment selection, Lookup Table 1 was generated. […] The information contained in Lookup Table 1 was obtained from urine specimens from patients with Klebsiella infections from several clinics within different regions of the United States. Indications of allowance or non-recommendation were determined based on a 20% resistance threshold to the indicated antibiotic; i.e., the antibiotic is recommended when more than 80% of the tested isolates within the indicated clonotype were susceptible to the indicated antibiotic, and was cautioned against when less than 80% of the isolates were susceptible to the antibiotic.

## trimethoprim/sulfamethoxazole [TS]
CT 000
  susceptibility, %: 87%
CT 001
  susceptibility, %: 100%
CT 010
  susceptibility, %: 100%
CT 011
  susceptibility, %: 91%
CT 031
  susceptibility, %: 67%
CT 040
  susceptibility, %: 25%
CT 050
  susceptibility, %: 86%
CT 051
  susceptibility, %: 85%
CT 071
  susceptibility, %: 60%
CT 100
  susceptibility, %: 100%
CT 110
  susceptibility, %: 100%
CT 111
  susceptibility, %: 90%
CT 130
  susceptibility, %: 92%
CT 131
  susceptibility, %: 72%
CT 141
  susceptibility, %: 100%
CT 150
  susceptibility, %: 73%
CT 151
  susceptibility, %: 65%
CT 160
  susceptibility, %: 0%
CT 170
  susceptibility, %: 83%
CT 171
  susceptibility, %: 92%
CT 200
  susceptibility, %: 77%
CT 201
  susceptibility, %: 79%
CT 210
  susceptibility, %: 95%
CT 211
  susceptibility, %: 91%
CT 230
  susceptibility, %: 100%
CT 231
  susceptibility, %: 100%
CT 240
  susceptibility, %: 100%
CT 241
  susceptibility, %: 100%
CT 250
  susceptibility, %: 80%
CT 251
  susceptibility, %: 80%
CT 271
  susceptibility, %: 75%
CT 300
  susceptibility, %: 0%
CT 301
  susceptibility, %: 76%
CT 310
  susceptibility, %: 100%
CT 311
  susceptibility, %: 65%
CT 330
  susceptibility, %: 55%
CT 331
  susceptibility, %: 76%
CT 350
  susceptibility, %: 74%
CT 351
  susceptibility, %: 84%
CT 370
  susceptibility, %: 75%
CT 371
  susceptibility, %: 100%
CT 411
  susceptibility, %: 100%
CT 450
  susceptibility, %: 83%
CT 451
  susceptibility, %: 100%
CT 510
  susceptibility, %: 100%
CT 511
  susceptibility, %: 0%
CT 530
  susceptibility, %: 45%
CT 531
  susceptibility, %: 67%
CT 550
  susceptibility, %: 79%
CT 551
  susceptibility, %: 52%
CT 570
  susceptibility, %: 75%
CT 571
  susceptibility, %: 100%
CT 611
  susceptibility, %: 100%
CT 630
  susceptibility, %: 100%
CT 650
  susceptibility, %: 83%
CT 651
  susceptibility, %: 85%
CT 670
  susceptibility, %: 100%
CT 710
  susceptibility, %: 67%
CT 730
  susceptibility, %: 45%
CT 731
  susceptibility, %: 82%
CT 750
  susceptibility, %: 65%
CT 751
  susceptibility, %: 100%
CT 771
  susceptibility, %: 86%
CT Any Klebsiella spp.
  susceptibility, %: 80%

## CN(C)[C@@H]1C(O)=C(C(N)=O)C(=O)[C@@]2(O)C(O)=C3C(=O)c4c(O)cccc4[C@@](C)(O)[C@H]3C[C@@H]12 [TET, tetracycline]
CT 000
  susceptibility, %: 93%
CT 001
  susceptibility, %: 0%
CT 010
  susceptibility, %: 67%
CT 011
  susceptibility, %: 73%
CT 031
  susceptibility, %: 67%
CT 040
  susceptibility, %: 50%
CT 050
  susceptibility, %: 76%
CT 051
  susceptibility, %: 85%
CT 071
  susceptibility, %: 80%
CT 100
  susceptibility, %: 100%
CT 110
  susceptibility, %: 100%
CT 111
  susceptibility, %: 90%
CT 130
  susceptibility, %: 88%
CT 131
  susceptibility, %: 52%
CT 141
  susceptibility, %: 100%
CT 150
  susceptibility, %: 80%
CT 151
  susceptibility, %: 75%
CT 160
  susceptibility, %: 100%
CT 170
  susceptibility, %: 91%
CT 171
  susceptibility, %: 81%
CT 200
  susceptibility, %: 83%
CT 201
  susceptibility, %: 83%
CT 210
  susceptibility, %: 76%
CT 211
  susceptibility, %: 88%
CT 230
  susceptibility, %: 0%
CT 231
  susceptibility, %: 100%
CT 240
  susceptibility, %: 100%
CT 241
  susceptibility, %: 100%
CT 250
  susceptibility, %: 85%
CT 251
  susceptibility, %: 83%
CT 271
  susceptibility, %: 79%
CT 300
  susceptibility, %: 0%
CT 301
  susceptibility, %: 88%
CT 310
  susceptibility, %: 93%
CT 311
  susceptibility, %: 80%
CT 330
  susceptibility, %: 80%
CT 331
  susceptibility, %: 75%
CT 350
  susceptibility, %: 83%
CT 351
  susceptibility, %: 86%
CT 370
  susceptibility, %: 75%
CT 371
  susceptibility, %: 100%
CT 411
  susceptibility, %: 100%
CT 450
  susceptibility, %: 83%
CT 451
  susceptibility, %: 100%
CT 510
  susceptibility, %: 100%
CT 511
  susceptibility, %: 100%
CT 530
  susceptibility, %: 75%
CT 531
  susceptibility, %: 100%
CT 550
  susceptibility, %: 75%
CT 551
  susceptibility, %: 93%
CT 570
  susceptibility, %: 75%
CT 571
  susceptibility, %: 100%
CT 611
  susceptibility, %: 67%
CT 630
  susceptibility, %: 100%
CT 650
  susceptibility, %: 83%
CT 651
  susceptibility, %: 92%
CT 670
  susceptibility, %: 100%
CT 710
  susceptibility, %: 67%
CT 730
  susceptibility, %: 79%
CT 731
  susceptibility, %: 85%
CT 750
  susceptibility, %: 95%
CT 751
  susceptibility, %: 100%
CT 771
  susceptibility, %: 100%
CT Any Klebsiella spp.
  susceptibility, %: 82%

## amoxicillin/clavulanate [AMC]
CT 000
  susceptibility, %: 92%
CT 001
  susceptibility, %: 100%
CT 010
  susceptibility, %: 100%
CT 011
  susceptibility, %: 91%
CT 031
  susceptibility, %: 67%
CT 040
  susceptibility, %: 75%
CT 050
  susceptibility, %: 90%
CT 051
  susceptibility, %: 90%
CT 071
  susceptibility, %: 80%
CT 100
  susceptibility, %: 86%
CT 110
  susceptibility, %: 100%
CT 111
  susceptibility, %: 90%
CT 130
  susceptibility, %: 98%
CT 131
  susceptibility, %: 69%
CT 141
  susceptibility, %: 100%
CT 150
  susceptibility, %: 87%
CT 151
  susceptibility, %: 78%
CT 160
  susceptibility, %: 100%
CT 170
  susceptibility, %: 96%
CT 171
  susceptibility, %: 92%
CT 200
  susceptibility, %: 69%
CT 201
  susceptibility, %: 89%
CT 210
  susceptibility, %: 71%
CT 211
  susceptibility, %: 90%
CT 230
  susceptibility, %: 100%
CT 231
  susceptibility, %: 100%
CT 240
  susceptibility, %: 0%
CT 241
  susceptibility, %: 100%
CT 250
  susceptibility, %: 100%
CT 251
  susceptibility, %: 93%
CT 271
  susceptibility, %: 96%
CT 300
  susceptibility, %: 100%
CT 301
  susceptibility, %: 96%
CT 310
  susceptibility, %: 80%
CT 311
  susceptibility, %: 80%
CT 330
  susceptibility, %: 95%
CT 331
  susceptibility, %: 86%
CT 350
  susceptibility, %: 83%
CT 351
  susceptibility, %: 92%
CT 370
  susceptibility, %: 100%
CT 371
  susceptibility, %: 75%
CT 411
  susceptibility, %: 100%
CT 450
  susceptibility, %: 100%
CT 451
  susceptibility, %: 100%
CT 510
  susceptibility, %: 100%
CT 511
  susceptibility, %: 100%
CT 530
  susceptibility, %: 93%
CT 531
  susceptibility, %: 83%
CT 550
  susceptibility, %: 86%
CT 551
  susceptibility, %: 50%
CT 570
  susceptibility, %: 75%
CT 571
  susceptibility, %: 100%
CT 611
  susceptibility, %: 100%
CT 630
  susceptibility, %: 100%
CT 650
  susceptibility, %: 91%
CT 651
  susceptibility, %: 92%
CT 670
  susceptibility, %: 100%
CT 710
  susceptibility, %: 100%
CT 730
  susceptibility, %: 60%
CT 731
  susceptibility, %: 98%
CT 750
  susceptibility, %: 95%
CT 751
  susceptibility, %: 100%
CT 771
  susceptibility, %: 100%
CT Any Klebsiella spp.
  susceptibility, %: 87%

## O=C1CN(/N=C/c2ccc([N+](=O)[O-])o2)C(=O)N1 [NIT, nitrofurantoin]
CT 000
  susceptibility, %: 91%
CT 001
  susceptibility, %: 0%
CT 010
  susceptibility, %: 33%
CT 011
  susceptibility, %: 82%
CT 031
  susceptibility, %: 100%
CT 040
  susceptibility, %: 50%
CT 050
  susceptibility, %: 33%
CT 051
  susceptibility, %: 56%
CT 071
  susceptibility, %: 60%
CT 100
  susceptibility, %: 86%
CT 110
  susceptibility, %: 0%
CT 111
  susceptibility, %: 30%
CT 130
  susceptibility, %: 70%
CT 131
  susceptibility, %: 56%
CT 141
  susceptibility, %: 0%
CT 150
  susceptibility, %: 42%
CT 151
  susceptibility, %: 41%
CT 160
  susceptibility, %: 0%
CT 170
  susceptibility, %: 39%
CT 171
  susceptibility, %: 28%
CT 200
  susceptibility, %: 97%
CT 201
  susceptibility, %: 66%
CT 210
  susceptibility, %: 57%
CT 211
  susceptibility, %: 81%
CT 230
  susceptibility, %: 0%
CT 231
  susceptibility, %: 50%
CT 240
  susceptibility, %: 100%
CT 241
  susceptibility, %: 0%
CT 250
  susceptibility, %: 50%
CT 251
  susceptibility, %: 57%
CT 271
  susceptibility, %: 50%
CT 300
  susceptibility, %: 0%
CT 301
  susceptibility, %: 64%
CT 310
  susceptibility, %: 47%
CT 311
  susceptibility, %: 60%
CT 330
  susceptibility, %: 15%
CT 331
  susceptibility, %: 53%
CT 350
  susceptibility, %: 54%
CT 351
  susceptibility, %: 59%
CT 370
  susceptibility, %: 25%
CT 371
  susceptibility, %: 25%
CT 411
  susceptibility, %: 50%
CT 450
  susceptibility, %: 50%
CT 451
  susceptibility, %: 67%
CT 510
  susceptibility, %: 0%
CT 511
  susceptibility, %: 100%
CT 530
  susceptibility, %: 31%
CT 531
  susceptibility, %: 33%
CT 550
  susceptibility, %: 19%
CT 551
  susceptibility, %: 18%
CT 570
  susceptibility, %: 25%
CT 571
  susceptibility, %: 50%
CT 611
  susceptibility, %: 50%
CT 630
  susceptibility, %: 0%
CT 650
  susceptibility, %: 63%
CT 651
  susceptibility, %: 35%
CT 670
  susceptibility, %: 0%
CT 710
  susceptibility, %: 67%
CT 730
  susceptibility, %: 36%
CT 731
  susceptibility, %: 67%
CT 750
  susceptibility, %: 50%
CT 751
  susceptibility, %: 33%
CT 771
  susceptibility, %: 57%
CT Any Klebsiella spp.
  susceptibility, %: 59%
